Activity calls are given as the source filed them.
Legend:
[1] = target: Dual specificity protein kinase CLK1 (Homo sapiens, UniProt P49759); experiment: inhibition of human CLK1 activity – biochemical, cherry-picked samples, selectivity assay for Dyrk1A inhibitor project, dose response (AID 588811)
[2] = target: T1, Leucine aminopeptidase (Plasmodium falciparum 3D7, UniProt Q8IL11); experiment: P. falciparum M17LAP inhibitors, primary screen, biochemical, fluorogenic H-Leu-NHMec substrate, 1536-well (AID 1619); assay type: functional
T1 sequence (Q8IL11 whole entry): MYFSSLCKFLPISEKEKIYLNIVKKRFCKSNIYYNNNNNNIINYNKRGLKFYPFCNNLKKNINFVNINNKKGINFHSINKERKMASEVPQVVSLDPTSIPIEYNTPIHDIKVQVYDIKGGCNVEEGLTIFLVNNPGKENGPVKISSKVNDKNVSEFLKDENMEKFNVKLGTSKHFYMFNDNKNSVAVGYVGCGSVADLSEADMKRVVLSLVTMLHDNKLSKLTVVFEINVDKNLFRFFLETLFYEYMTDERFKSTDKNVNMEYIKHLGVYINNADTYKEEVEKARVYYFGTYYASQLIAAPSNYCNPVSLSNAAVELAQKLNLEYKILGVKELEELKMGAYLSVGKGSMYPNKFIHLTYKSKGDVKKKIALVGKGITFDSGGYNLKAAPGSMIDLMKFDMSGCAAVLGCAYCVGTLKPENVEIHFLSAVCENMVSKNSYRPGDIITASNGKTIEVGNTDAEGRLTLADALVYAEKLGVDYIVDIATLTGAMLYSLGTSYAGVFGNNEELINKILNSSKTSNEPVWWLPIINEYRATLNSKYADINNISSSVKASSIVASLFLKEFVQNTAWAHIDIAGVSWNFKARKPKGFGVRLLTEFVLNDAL

[3] = target: Procathepsin L (Homo sapiens, UniProt P07711); experiment: CTSL1 protease inhibition – biochemical, QFRET, 1536-well, counter-screen for M1/M17 aminopeptidase inhibitor project, dose response (AID 2214)
[4] = tested on: Escherichia coli; experiment: microbe, parasite or virus in culture
[5] = target: Aspartyl aminopeptidase (Plasmodium falciparum 3D7, UniProt Q8I2J3); experiment: Counterscreen for inhibitors of M1 and M17 aminopeptidases: QFRET-based biochemical high throughput dose response assay for inhibitors of the Plasmodium falciparum M18 Aspartyl Aminopeptidase (PFM18AAP). [Related PubChem assays: 1619 (Screening assay (M17LAP inhibitors).), 1445 (Screening assay (M1AAP inhibitors).)]
[6] = target: T2, Ubiquitin-conjugating enzyme E2 N (Homo sapiens, UniProt P61088); assay type: functional;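 also: Dose-response confirmation in a TR-FRET assay detecting UBC13-driven polyubiquitin chain formation, inhibition measured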
T2 sequence (P61088 whole entry): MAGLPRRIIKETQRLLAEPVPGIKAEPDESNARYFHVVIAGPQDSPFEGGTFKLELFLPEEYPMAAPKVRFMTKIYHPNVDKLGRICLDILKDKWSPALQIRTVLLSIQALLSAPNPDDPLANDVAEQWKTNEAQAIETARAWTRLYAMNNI

[7] = blockers of bursicon-stimulated LGR2 cAMP reporter – cell-based, HEK293, CRE-luciferase reporter, cherry pick, set 2, dose response (AID 743343); assay type: functional;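 also: transfected cells were stimulated with diluted bursicon conditioned medium after compound addition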
[8] = cells; assay type: functional
[9] = blockade of melanocortin 4 receptor signaling – cell-based, plate reader, cherry pick, counter-screen for LGR2 antagonist project, dose response (AID 743444); assay type: functional;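 also: transfected HEK 293 cells stimulated with alpha-MSH peptide; potency of inhibitors of the alpha-MSH evoked signal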
[10] = THP-1 cell cytotoxicity, dose response, cytotoxicity control for non-replicating M. tuberculosis project (AID 489025); assay type: functional
[11] = tested on: A-375; experiment: proliferation inhibition in MITF-low A375 cells – cell-based, cherry-pick samples, set 2, counter-screen for MITF modulator project, dose response (AID 540335); assay type: functional; conditions: Homo sapiens
[12] = target: T3, Rac GTPase-activating protein 1 (Homo sapiens, UniProt Q9H0H5); experiment: blockers of MgcRacGAP-driven Rac1 GTP hydrolysis – biochemical, ADP Hunter fluorescence, primary and confirmatory, confirmation (AID 624330); assay type: functional
T3 sequence (Q9H0H5 whole entry): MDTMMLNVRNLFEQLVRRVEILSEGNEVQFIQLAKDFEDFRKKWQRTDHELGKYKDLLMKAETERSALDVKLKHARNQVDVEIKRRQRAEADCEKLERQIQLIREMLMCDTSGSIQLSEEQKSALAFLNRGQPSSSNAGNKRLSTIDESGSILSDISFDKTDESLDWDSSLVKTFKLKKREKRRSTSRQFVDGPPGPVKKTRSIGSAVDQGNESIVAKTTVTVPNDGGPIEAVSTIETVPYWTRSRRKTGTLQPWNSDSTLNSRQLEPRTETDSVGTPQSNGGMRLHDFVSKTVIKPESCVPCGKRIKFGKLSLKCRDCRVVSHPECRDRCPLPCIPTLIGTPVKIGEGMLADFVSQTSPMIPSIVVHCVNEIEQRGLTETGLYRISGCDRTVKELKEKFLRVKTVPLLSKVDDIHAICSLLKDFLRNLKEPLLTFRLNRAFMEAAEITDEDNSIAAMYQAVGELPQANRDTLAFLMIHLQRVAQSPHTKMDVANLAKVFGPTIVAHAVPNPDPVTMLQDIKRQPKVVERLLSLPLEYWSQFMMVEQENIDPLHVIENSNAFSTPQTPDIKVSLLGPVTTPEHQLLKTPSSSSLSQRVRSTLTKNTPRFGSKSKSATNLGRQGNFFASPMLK

[13] = toxicity toward HepG2 liver cells – cell-based, plate reader, cherry-pick, antagonist series, cytotoxicity control, dose response (AID 743416); assay type: functional
[14] = target: T4, Microphthalmia-associated transcription factor (Homo sapiens, UniProt O75030); experiment: reducers of TRPM1 reporter luminescence, concentration series – cell-based, SK-MEL-5, cherry-picked, set 3, MITF inhibitor project, dose response (AID 493073); assay type: functional;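 also: SK-MEL-5 melanoma cells with luciferase driven by the MITF target TRPM1 promoter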
T4 sequence (O75030 whole entry): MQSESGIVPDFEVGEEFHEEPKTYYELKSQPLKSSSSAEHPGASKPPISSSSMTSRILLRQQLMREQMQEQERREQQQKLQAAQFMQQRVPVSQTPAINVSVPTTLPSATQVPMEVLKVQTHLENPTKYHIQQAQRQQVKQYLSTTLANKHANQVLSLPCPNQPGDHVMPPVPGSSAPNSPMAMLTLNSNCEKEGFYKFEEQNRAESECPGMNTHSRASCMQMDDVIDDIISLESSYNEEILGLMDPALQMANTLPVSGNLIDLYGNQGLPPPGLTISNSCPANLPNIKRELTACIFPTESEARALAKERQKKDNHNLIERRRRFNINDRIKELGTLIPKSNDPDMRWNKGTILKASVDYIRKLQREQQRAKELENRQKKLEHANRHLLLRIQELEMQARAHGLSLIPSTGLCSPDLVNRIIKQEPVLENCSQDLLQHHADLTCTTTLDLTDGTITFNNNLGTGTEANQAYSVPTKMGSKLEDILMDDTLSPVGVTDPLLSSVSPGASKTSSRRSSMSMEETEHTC

[15] = A549 cell cytotoxicity, dose response, cytotoxicity control, plate reader, cherry-pick, antagonist series (AID 743412); assay type: functional, cell-based
[16] = Vero E6 cell cytotoxicity, dose response, cytotoxicity control for non-replicating M. tuberculosis project, secondary assay (AID 492998); assay type: functional, VeroE6; conditions: Vero C1008
[17] = HepG2 cell cytotoxicity, dose response, cytotoxicity control for non-replicating M. tuberculosis project (AID 489018); assay type: functional; conditions: Mycobacterium tuberculosis
[18] = viability loss in HeLa cells – cytotoxicity control for MgcRacGAP inhibitor project, dose response (AID 624300); assay type: functional
[19] = viability loss in HEK293 cells – cell-based, plate reader, cherry-picked samples, cytotoxicity control, dose response (AID 743446); assay type: functional
[20] = target: Sphingosine 1-phosphate receptor 1 (Homo sapiens, UniProt P21453); experiment: Late-stage fluorescence-based dose-response cell-based assay to identify agonists of the Sphingosine 1-Phosphate Receptor 4 (S1P4): Sphingosine 1-Phosphate Receptor 1 (S1P1) counterscreen assay. [Related pubchem assays (depositor defined):AID1509, AID1523, AID1563, AID1686, AID1701, AID1801, AID463107, AID463225, AID504400]; assay type: functional
[21] = target: Sphingosine 1-phosphate receptor 3 (Homo sapiens, UniProt Q99500); experiment: Late-stage fluorescence-based dose-response cell-based assay to identify agonists of the Sphingosine 1-Phosphate Receptor 4 (S1P4): Sphingosine 1-Phosphate Receptor 3 (S1P3) counterscreen assay. [Related pubchem assays (depositor defined):AID1509, AID1523, AID1563, AID1686, AID1701, AID1801, AID463107, AID463225, AID504400]; assay type: functional
[22] = target: Sphingosine 1-phosphate receptor 4 (Homo sapiens, UniProt O95977); experiment: Late-stage fluorescence dose response cell-based counterscreening assay for agonists of the Sphingosine 1-Phosphate Receptor 4 (S1P4): inhibition by S1P4-selective antagonist. [Related pubchem assays (depositor defined):AID1509, AID1523, AID1563, AID1686, AID1701, AID1801, AID463107, AID463118, AID463119, AID463122, AID463123, AID463129, AID504400]; assay type: functional
[23] = target: Sphingosine 1-phosphate receptor 2 (Homo sapiens, UniProt O95136); experiment: Late-stage fluorescence-based dose-response cell-based assay to identify agonists of the Sphingosine 1-Phosphate Receptor 4 (S1P4): Sphingosine 1-Phosphate Receptor 2 (S1P2) counterscreen assay. [Related pubchem assays (depositor defined):AID1509, AID1523, AID1563, AID1686, AID1701, AID1801, AID463107, AID463225, AID504400]; assay type: functional
[24] = target: Sphingosine 1-phosphate receptor 5 (Homo sapiens, UniProt Q9H228); experiment: Late-stage fluorescence-based dose-response cell-based assay to identify agonists of the Sphingosine 1-Phosphate Receptor 4 (S1P4): Sphingosine 1-Phosphate Receptor 5 (S1P5) counterscreen assay. [Related pubchem assays (depositor defined):AID1509, AID1523, AID1563, AID1686, AID1701, AID1801, AID463107, AID463225, AID504400]; assay type: functional
[25] = Late-stage assay provider results from the probe development effort to identify agonists of the Sphingosine 1-Phosphate Receptor 4 (S1P4): luminescence-based cell-based dose response assay to determine cytotoxicity of agonist compounds. [Related pubchem assays (depositor defined):AID1509, AID1523, AID1563, AID1686, AID1701, AID1801, AID463107, AID463225, AID504400]; assay type: functional
[26] = target: T5, Beta-2 adrenergic receptor (Homo sapiens, UniProt P07550); experiment: Dose response for HTS for Beta-2AR agonists via FAP method from Powderset1.; assay type: functional
[27] = target: T5, Beta-2 adrenergic receptor; experiment: ADRB2 activation measured by internalization – cell-based, FAP fluorogen, flow cytometry, cherry pick 1, dose response (AID 588763); assay type: functional
[28] = tested on: Candida albicans; experiment: Candida growth inhibition combined with fluconazole – CaCi-2 strain, Alamar Blue, dry powder, set 3, dose response (AID 488907); assay type: functional, organism-based
[29] = alpha-synuclein stem-loop luciferase translation blockers – H4 neuroglioma cells, luminescence, confirmation (AID 1988); assay type: functional, cell-based
[30] = NIH-3T3 fibroblast cytotoxicity, dose response, cytotoxicity control, cell-based, fluorescence, Alamar Blue, secondary assay (AID 2327); assay type: functional;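 also: NIH-3T3 mouse fibroblasts cultured with fluconazole at 8 µg/mL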
[31] = target: E3 ubiquitin-protein ligase XIAP (Homo sapiens, UniProt P98170); experiment: Counter Screen using XIAP-Bir3 for Chemical Antagonists of Bir1/2 domains of IAP-family anti-apoptotic proteins. [Related pubchem assays (depositor defined):AID1018, AID1449, AID1514, AID1638, AID1749, AID1750, AID488957, AID488963]
[32] = target: Beta-adrenergic receptor kinase 1 (Homo sapiens, UniProt P25098); experiment: aptamer displacement from bead-bound GRK2 – biochemical, cherry pick 1, bead flow cytometry, dose response (AID 504500)
[33] = target: Large T antigen (Simian virus 40, UniProt P03070); assay type: functional, Betapolyomavirus macacae;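 also: Confirmatory-stage PubChem screen for compounds that inhibit SV40 T antigen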
[34] = luciferase reporter signal suppression in cells – H4 neuroglioma cells, luminescence, dose response (AID 1990); assay type: functional, cell-based
[35] = fluconazole-exposed Candida albicans growth modulators – fluorescence, retest, confirmation (AID 2467); assay type: functional, cell-based
[36] = target: Aryl hydrocarbon receptor (Homo sapiens, UniProt P35869); conditions: Potency;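 also: confirmatory quantitative high-throughput screen measuring activation of the AhR signaling pathway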
[37] = target: Voltage-gated inwardly rectifying potassium channel KCNH2 (Homo sapiens, UniProt Q12809); conditions: Potency;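 also: confirmatory quantitative high-throughput screen measuring inhibition of hERG channel activity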
Sequence of Voltage-gated inwardly rectifying potassium channel KCNH2 (Q12809 whole entry): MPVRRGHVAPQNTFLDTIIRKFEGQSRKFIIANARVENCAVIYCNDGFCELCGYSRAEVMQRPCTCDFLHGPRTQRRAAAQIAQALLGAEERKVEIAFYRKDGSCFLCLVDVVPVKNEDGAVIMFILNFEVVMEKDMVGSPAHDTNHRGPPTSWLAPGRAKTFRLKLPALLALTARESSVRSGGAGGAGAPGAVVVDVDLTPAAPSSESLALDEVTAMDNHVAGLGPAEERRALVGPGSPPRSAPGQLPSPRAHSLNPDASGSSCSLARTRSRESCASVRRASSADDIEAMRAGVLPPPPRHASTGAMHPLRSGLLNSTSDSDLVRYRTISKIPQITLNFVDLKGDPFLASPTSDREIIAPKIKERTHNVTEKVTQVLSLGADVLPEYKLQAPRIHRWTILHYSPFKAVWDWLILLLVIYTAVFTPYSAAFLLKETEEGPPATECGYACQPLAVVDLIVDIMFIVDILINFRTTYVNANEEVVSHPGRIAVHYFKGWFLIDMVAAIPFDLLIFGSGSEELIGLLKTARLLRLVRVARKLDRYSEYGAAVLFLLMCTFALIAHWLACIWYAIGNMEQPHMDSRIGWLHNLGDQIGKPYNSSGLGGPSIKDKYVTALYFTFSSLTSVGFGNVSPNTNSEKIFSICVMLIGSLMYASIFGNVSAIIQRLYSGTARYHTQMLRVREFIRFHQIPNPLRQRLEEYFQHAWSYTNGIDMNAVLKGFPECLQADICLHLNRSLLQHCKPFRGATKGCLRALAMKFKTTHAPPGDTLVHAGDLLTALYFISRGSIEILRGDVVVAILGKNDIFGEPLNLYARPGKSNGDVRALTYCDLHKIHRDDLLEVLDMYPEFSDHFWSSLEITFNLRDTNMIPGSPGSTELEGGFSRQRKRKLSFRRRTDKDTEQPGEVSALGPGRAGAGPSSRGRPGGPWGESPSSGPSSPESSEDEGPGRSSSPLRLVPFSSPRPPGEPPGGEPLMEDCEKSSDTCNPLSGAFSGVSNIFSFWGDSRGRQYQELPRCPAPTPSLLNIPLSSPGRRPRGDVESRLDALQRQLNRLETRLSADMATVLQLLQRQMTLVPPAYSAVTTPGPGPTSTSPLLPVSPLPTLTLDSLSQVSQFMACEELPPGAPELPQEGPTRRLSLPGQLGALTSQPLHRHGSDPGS

T5 sequence (P07550 whole entry): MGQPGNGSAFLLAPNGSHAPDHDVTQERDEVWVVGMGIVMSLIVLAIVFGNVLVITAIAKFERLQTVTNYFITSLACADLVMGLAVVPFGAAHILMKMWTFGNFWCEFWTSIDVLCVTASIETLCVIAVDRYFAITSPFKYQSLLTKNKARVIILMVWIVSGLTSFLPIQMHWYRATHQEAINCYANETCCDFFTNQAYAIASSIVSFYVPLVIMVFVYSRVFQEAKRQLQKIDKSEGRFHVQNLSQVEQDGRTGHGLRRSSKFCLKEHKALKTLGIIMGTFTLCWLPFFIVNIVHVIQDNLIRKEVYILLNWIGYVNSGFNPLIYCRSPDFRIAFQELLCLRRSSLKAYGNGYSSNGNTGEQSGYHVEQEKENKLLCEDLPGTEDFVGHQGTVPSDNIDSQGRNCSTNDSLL
Sequence of Sphingosine 1-phosphate receptor 5 (Q9H228 whole entry): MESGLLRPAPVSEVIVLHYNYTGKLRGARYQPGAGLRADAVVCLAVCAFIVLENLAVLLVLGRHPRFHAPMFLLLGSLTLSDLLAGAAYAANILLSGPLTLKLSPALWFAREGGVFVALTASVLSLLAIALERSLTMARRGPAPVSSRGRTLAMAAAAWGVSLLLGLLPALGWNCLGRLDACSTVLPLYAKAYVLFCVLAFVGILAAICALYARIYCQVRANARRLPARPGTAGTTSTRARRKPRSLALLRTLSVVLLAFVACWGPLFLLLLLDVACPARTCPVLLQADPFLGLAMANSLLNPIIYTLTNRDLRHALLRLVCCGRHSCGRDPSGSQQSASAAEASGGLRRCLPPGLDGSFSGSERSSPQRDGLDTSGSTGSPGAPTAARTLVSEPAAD
Sequence of Large T antigen (P03070 whole entry): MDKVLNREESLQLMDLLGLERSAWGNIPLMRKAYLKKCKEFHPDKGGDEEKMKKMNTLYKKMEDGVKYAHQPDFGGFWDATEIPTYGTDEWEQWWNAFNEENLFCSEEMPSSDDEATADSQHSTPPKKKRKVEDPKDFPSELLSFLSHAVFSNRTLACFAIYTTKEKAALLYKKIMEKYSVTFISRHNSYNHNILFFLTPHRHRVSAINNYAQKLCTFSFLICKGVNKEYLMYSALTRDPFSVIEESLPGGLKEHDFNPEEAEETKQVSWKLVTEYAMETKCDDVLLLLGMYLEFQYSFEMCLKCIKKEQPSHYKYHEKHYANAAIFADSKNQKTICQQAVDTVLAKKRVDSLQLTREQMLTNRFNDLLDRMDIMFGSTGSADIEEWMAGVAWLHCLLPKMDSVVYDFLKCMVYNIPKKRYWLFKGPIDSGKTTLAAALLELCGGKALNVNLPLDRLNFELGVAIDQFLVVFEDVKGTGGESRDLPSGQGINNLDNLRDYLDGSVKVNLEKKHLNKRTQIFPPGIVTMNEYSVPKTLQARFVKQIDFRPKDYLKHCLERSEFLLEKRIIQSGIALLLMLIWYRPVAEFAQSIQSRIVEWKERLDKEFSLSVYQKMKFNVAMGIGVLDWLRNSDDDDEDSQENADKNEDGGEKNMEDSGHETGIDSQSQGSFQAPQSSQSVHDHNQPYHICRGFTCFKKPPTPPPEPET
Sequence of Sphingosine 1-phosphate receptor 2 (O95136 whole entry): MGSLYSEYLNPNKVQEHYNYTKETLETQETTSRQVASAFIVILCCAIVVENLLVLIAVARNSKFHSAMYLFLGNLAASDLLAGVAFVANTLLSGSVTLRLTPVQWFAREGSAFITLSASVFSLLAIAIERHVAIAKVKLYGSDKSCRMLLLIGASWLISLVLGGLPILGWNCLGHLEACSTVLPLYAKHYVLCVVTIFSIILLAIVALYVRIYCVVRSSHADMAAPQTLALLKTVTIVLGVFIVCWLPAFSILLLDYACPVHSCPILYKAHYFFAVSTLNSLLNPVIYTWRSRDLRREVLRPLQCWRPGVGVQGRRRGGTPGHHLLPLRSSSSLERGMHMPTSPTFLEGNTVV
Sequence of Sphingosine 1-phosphate receptor 4 (O95977 whole entry): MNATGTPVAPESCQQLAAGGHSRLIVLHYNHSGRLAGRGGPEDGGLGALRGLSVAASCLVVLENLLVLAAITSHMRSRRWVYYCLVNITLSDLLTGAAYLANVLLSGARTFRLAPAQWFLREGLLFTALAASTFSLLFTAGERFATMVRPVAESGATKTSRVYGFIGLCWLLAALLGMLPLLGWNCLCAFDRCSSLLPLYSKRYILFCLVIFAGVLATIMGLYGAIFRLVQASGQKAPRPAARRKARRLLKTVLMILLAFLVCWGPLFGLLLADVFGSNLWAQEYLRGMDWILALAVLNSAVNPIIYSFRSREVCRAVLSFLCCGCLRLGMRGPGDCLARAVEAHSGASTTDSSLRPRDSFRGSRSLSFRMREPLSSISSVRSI
Sequence of Sphingosine 1-phosphate receptor 1 (P21453 whole entry): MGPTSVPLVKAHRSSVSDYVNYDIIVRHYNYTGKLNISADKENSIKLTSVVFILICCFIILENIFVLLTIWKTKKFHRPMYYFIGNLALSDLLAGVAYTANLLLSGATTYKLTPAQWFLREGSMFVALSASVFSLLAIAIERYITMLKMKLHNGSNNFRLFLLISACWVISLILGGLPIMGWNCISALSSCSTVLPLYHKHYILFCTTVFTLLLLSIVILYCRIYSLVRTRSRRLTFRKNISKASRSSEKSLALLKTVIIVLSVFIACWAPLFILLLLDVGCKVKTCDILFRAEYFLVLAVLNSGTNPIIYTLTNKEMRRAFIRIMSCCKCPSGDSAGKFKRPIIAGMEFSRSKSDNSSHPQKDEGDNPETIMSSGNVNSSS
Sequence of Procathepsin L (P07711 whole entry): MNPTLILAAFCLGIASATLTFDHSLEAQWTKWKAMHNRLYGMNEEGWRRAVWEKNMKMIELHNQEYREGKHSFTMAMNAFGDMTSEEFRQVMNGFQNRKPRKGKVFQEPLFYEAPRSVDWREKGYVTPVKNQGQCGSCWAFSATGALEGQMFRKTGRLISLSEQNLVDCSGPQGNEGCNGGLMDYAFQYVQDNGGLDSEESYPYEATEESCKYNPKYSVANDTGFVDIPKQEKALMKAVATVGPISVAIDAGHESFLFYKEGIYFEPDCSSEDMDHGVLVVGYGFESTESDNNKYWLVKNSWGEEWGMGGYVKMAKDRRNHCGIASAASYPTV
Sequence of Sphingosine 1-phosphate receptor 3 (Q99500 whole entry): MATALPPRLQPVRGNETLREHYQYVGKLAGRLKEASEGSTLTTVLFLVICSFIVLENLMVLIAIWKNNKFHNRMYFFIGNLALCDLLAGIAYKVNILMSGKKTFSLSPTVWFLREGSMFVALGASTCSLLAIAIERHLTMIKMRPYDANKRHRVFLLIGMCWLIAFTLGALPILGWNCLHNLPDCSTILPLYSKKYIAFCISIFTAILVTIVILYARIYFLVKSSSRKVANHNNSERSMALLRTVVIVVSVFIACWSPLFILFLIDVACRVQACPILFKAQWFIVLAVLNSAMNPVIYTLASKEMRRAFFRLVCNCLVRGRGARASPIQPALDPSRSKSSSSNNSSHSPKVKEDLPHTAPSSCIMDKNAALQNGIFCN
Sequence of Dual specificity protein kinase CLK1 (P49759 whole entry): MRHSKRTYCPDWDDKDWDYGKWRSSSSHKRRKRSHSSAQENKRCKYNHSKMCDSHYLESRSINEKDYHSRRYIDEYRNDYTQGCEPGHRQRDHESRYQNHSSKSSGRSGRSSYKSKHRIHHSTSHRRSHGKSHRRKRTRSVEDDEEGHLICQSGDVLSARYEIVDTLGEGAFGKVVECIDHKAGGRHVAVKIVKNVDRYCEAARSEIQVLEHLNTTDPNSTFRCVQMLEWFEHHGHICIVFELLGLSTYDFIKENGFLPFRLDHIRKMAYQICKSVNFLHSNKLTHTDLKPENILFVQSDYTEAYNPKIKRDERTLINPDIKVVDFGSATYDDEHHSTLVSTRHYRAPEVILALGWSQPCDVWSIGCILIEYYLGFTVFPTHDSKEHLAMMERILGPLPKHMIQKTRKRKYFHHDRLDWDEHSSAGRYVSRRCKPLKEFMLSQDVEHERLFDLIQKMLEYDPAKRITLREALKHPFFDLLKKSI

## CN(C)c1ccc(-c2nccc(NCc3cccs3)n2)cc1
[1]
  AC50: 0.265 µM (active)

## COc1ccc2nc(SCC(=O)Nc3cc(OC)c(OC)cc3C(=O)O)c(C)cc2c1
[2]
  IC50: < 1 µM (active)
[3]
  IC50: > 59.6 µM (not active)
[4]
  AC50: 27.6 µM (active)
[5]
  IC50: > 73.5 µM (not active)

## CC(C)(c1ccccc1)c1ccc(OCC(O)CNC2CCN(Cc3ccccc3)CC2)cc1 (configuration not stated)
[6]
  IC50: > 20 µM (inactive)
[7]
  AC50: 10.5 µM (active)
[8]
  IC50: 5.15 µM (active)
[9]
  AC50: 6.77 µM (active)
[10]
  CC50: 6.44 µM (active)
[11]
  AC50: 18.1 µM (active)
[12]
  IC50: 50.6 µM (active)
[13]
  AC50: 4.23 µM (active)
[14]
  AC50: 7.94 µM (active)
[15]
  AC50: 6.42 µM (active)
[16]
  CC50: 5.72 µM (active)
[17]
  CC50: 6.65 µM (active)
[18]
  CC50: 17.6 µM (active)
[19]
  AC50: 8.12 µM (active)

## Clc1ccc(OCCOc2ccc(Br)nc2Br)c(Cl)c1
[20]
  EC50: > 50 µM (inactive)
[21]
  EC50: > 50 µM (inactive)
[22]
  IC50: 0.83 µM (active)
[23]
  EC50: > 50 µM (inactive)
[24]
  EC50: > 50 µM (inactive)
[25]
  CC50: > 20 µM (inactive)

## CSc1ccc(CN2CCC(Oc3ccc(C(=O)N4CCCC4)cc3)CC2)cc1
[26]
  EC50: 0.348 µM (active)
[27]
  EC50: 1.39 µM (active)

## N#Cc1cccnc1N1CCN(C(=O)c2ccc(Cl)cc2)CC1
[28]
  AC50: 0.611 µM (active)

## O=S(=O)(O)c1cc(O)c2c(O)c(N=Nc3cc(Cl)ccc3O)c(S(=O)(=O)O)cc2c1
[29]
  EC50: 14.8 µM (active)
[30]
  EC50: > 150 µM (inactive)
[31]
  IC50: > 20 µM (inactive)
[32]
  EC50: 16.3 µM (inactive)
[33]
  IC50: 13.4 µM (active)
[34]
  EC50: 13.1 µM (active)
[35]
  EC50: > 38 µM (not active)

## COP(=S)(OC)Oc1ccc(SC)c(C)c1 [FENTHION]
[36]
  AC50: 50.1 µM (inconclusive)
[37]
  AC50: 22.4 µM (inconclusive)

— ChEMBL document CHEMBL1201862, “PubChem BioAssay data set” (2004)
